Reference: patent US9233983B2, “Substituted hetero-bicyclic compounds, compositions and medicinal applications thereof” (ADVINUS THERAPEUTICS LIMITED, priority 2012, dated 2016)

The molecules below were run against human Bruton's Tyrosine Kinase (Btk) (Homo sapiens (Human), UniProt Q06187) (assay: Recombinant Human Bruton's Tyrosine Kinase (Btk) Inhibition Assay (HTRF KinEASE-TK)). Conditions: 20 ng/ml rhBtk, 77 μM ATP (KM), 1 μM TK-Biotin substrate, 90 min; read-out: hBTK IC50.
Type: biochemical

human Bruton's Tyrosine Kinase (Btk), sequence (Q06187 whole entry): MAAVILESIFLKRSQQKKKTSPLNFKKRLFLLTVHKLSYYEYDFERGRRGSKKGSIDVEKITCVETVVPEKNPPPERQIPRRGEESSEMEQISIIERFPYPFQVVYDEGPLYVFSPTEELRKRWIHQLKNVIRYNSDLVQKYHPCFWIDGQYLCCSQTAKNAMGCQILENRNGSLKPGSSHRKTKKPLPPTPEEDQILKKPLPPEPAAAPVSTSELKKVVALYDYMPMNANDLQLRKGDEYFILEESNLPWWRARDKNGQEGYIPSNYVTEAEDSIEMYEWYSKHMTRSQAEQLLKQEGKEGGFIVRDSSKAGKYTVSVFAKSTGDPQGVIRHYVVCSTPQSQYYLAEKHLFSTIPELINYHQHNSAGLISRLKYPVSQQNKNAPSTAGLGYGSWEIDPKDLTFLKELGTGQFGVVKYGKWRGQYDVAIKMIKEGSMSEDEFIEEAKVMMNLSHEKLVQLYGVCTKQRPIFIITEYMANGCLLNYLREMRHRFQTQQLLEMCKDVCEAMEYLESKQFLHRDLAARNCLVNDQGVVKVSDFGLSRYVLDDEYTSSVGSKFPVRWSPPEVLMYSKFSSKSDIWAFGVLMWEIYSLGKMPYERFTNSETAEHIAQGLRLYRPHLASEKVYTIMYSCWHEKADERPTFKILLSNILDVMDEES

Row | SMILES | IC50 [µM]
1 | Cc1c(-c2ncnc3[nH]c(-c4ccc(C(=O)NCC(F)(F)F)cc4)cc23)cccc1N1CCOc2cc(C3CC3)ccc2C1=O [Example K-7, 4-[4-[3-(8-cyclopropyl-5-oxo-2,3-dihydro-1,4-benzoxazepin-4-yl)-2-methyl-phenyl]-7H-pyrrolo[2,3-d]pyrimidin-6-yl]-N-(2,2,2-trifluoroethyl)benzamide] | > 1
2 | Cc1c(-c2ncnc3[nH]c(-c4ccc(C(=O)N5CC(O)C5)cc4)cc23)cccc1N1CCOc2cc(C3CC3)ccc2C1=O [Example K-8, 8-cyclopropyl-4-[3-[6-[4-(3-hydroxyazetidine-1-carbonyl)phenyl]-7H-pyrrolo[2,3-d]pyrimidin-4-yl]-2-methyl-phenyl]-2,3-dihydro-1,4-benzoxazepin-5-one] | 0.36
3 | Cc1c(-c2ncnc3[nH]c(-c4ccc(C(=O)N5CCCC5)cc4)cc23)cccc1N1CCOc2cc(C3CC3)ccc2C1=O [Example K-9, 8-cyclopropyl-4-[2-methyl-3-[6-[4-(pyrrolidine-1-carbonyl)phenyl]-7H-pyrrolo[2,3-d]pyrimidin-4-yl]phenyl]-2,3-dihydro-1,4-benzoxazepin-5-one] | 0.137
4 | COC1CCN(C(=O)c2ccc(-c3cc4c(-c5cccc(N6CCOc7cc(C8CC8)ccc7C6=O)c5C)ncnc4[nH]3)cc2)CC1 [Example K-10, 8-cyclopropyl-4-[3-[6-[4-(4-methoxypiperidine-1-carbonyl)phenyl]-7H-pyrrolo[2,3-d]pyrimidin-4-yl]-2-methyl-phenyl]-2,3-dihydro-1,4-benzoxazepin-5-one] | 0.233
5 | COC1CN(C(=O)c2ccc(-c3cc4c(-c5cccc(N6CCOc7cc(C8CC8)ccc7C6=O)c5C)ncnc4[nH]3)cc2)C1 [Example K-11, 8-cyclopropyl-4-[3-[6-[4-(3-methoxyazetidine-1-carbonyl)phenyl]-7H-pyrrolo[2,3-d]pyrimidin-4-yl]-2-methyl-phenyl]-2,3-dihydro-1,4-benzoxazepin-5-one] | 0.162
6 | Cc1c(-c2ncnc3[nH]c(-c4ccc(C(=O)N5CCCC5C(=O)O)cc4)cc23)cccc1N1CCOc2cc(C3CC3)ccc2C1=O (centres unmarked) [Example K-12, 1-[4-[4-[3-(8-cyclopropyl-5-oxo-2,3-dihydro-1,4-benzoxazepin-4-yl)-2-methyl-phenyl]-7H-pyrrolo[2,3-d]pyrimidin-6-yl]benzoyl]pyrrolidine-2-carboxylic acid] | 0.114
7 | Cc1c(-c2ncnc3[nH]c(-c4ccc(C(=O)N5CCCC(C(=O)O)C5)cc4)cc23)cccc1N1CCOc2cc(C3CC3)ccc2C1=O (centres unmarked) [Example K-13, 1-[4-[4-[3-(8-cyclopropyl-5-oxo-2,3-dihydro-1,4-benzoxazepin-4-yl)-2-methyl-phenyl]-7H-pyrrolo[2,3-d]pyrimidin-6-yl]benzoyl]piperidine-3-carboxylic acid] | 0.133
8 | Cc1c(-c2ncnc3[nH]c(-c4ccc(C(=O)N5CCC(C(=O)O)CC5)cc4)cc23)cccc1N1CCOc2cc(C3CC3)ccc2C1=O [Example K-14, 1-[4-[4-[3-(8-cyclopropyl-5-oxo-2,3-dihydro-1,4-benzoxazepin-4-yl)-2-methyl-phenyl]-7H-pyrrolo[2,3-d]pyrimidin-6-yl]benzoyl]piperidine-4-carboxylic acid] | > 1
9 | Cc1c(-c2ncnc3[nH]c(-c4ccc(C(=O)N5CCOCC5)cc4)cc23)cccc1N1CCc2cc(C3CC3)ccc2C1=O [Example K-15, 6-cyclopropyl-2-[2-methyl-3-[6-[4-(morpholine-4-carbonyl)phenyl]-7H-pyrrolo[2,3-d]pyrimidin-4-yl]phenyl]-3,4-dihydroisoquinolin-1-one] | 0.13
10 | Cc1c(-c2ncnc3[nH]c(-c4ccc(C(=O)N5CC(O)C5)cc4)cc23)cccc1N1CCc2cc(C3CC3)ccc2C1=O [Example K-17, 6-cyclopropyl-2-[3-[6-[4-(3-hydroxyazetidine-1-carbonyl)phenyl]-7H-pyrrolo[2,3-d]pyrimidin-4-yl]-2-methyl-phenyl]-3,4-dihydroisoquinolin-1-one] | 0.041
11 | Cc1c(-c2ncnc3[nH]c(-c4ccc(C(=O)N5CCN(C)CC5)cc4)cc23)cccc1N1CCc2cc(C3CC3)ccc2C1=O [Example K-18, 6-cyclopropyl-2-[2-methyl-3-[6-[4-(4-methylpiperazine-1-carbonyl)phenyl]-7H-pyrrolo[2,3-d]pyrimidin-4-yl]phenyl]-3,4-dihydroisoquinolin-1-one] | 0.208
12 | Cc1c(-c2ncnc3[nH]c(-c4ccc(C(=O)N5CCN(C)CC5)cc4)cc23)cccc1N1CCc2cc(C3CC3)ccc2C1=O [Example K-21, 6-cyclopropyl-2-[2-methyl-3-[6-[4-(4-methylpiperazine-1-carbonyl)phenyl]-7H-pyrrolo[2,3-d]pyrimidin-4-yl]phenyl]-3,4-dihydroisoquinolin-1-one] | > 1
13 | CC1(O)CN(C(=O)c2ccc(-c3cc4c(-c5cccc(N6CCOc7cc(C8CC8)cc(F)c7C6=O)c5CO)ccnc4[nH]3)nc2)C1 [Example L-4, 8-cyclopropyl-6-fluoro-4-[2-(hydroxymethyl)-3-[2-[5-(3-hydroxy-3-methyl-azetidine-1-carbonyl)-2-pyridyl]-1H-pyrrolo[2,3-b]pyridin-4-yl]phenyl]-2,3-dihydro-1,4-benzoxazepin-5-one] | 0.043
14 | Cc1c(-c2ncnc3[nH]c(-c4ccccc4)cc23)cccc1N1CCOc2cc(C3CC3)ccc2C1=O [Example M-1, 8-cyclopropyl-4-[2-methyl-3-(6-phenyl-7H-pyrrolo[2,3-d]pyrimidin-4-yl)phenyl]-2,3-dihydro-1,4-benzoxazepin-5-one] | > 1
15 | Cc1c(-c2ncnc3[nH]c(-c4ccccc4)cc23)cccc1N1CCc2cc(C3CC3)ccc2C1=O [Example M-2, 6-cyclopropyl-2-[2-methyl-3-(6-phenyl-7H-pyrrolo[2,3-d]pyrimidin-4-yl)phenyl]-3,4-dihydroisoquinolin-1-one] | > 1
16 | Cc1c(-c2ncnc3[nH]c(-c4ccc(N5CCOCC5)cc4)cc23)cccc1N1CCOc2cc(C3CC3)ccc2C1=O [Example M-3, 8-cyclopropyl-4-[2-methyl-3-[6-(4-morpholinophenyl)-7H-pyrrolo[2,3-d]pyrimidin-4-yl]phenyl]-2,3-dihydro-1,4-benzoxazepin-5-one] | > 1
17 | Cc1c(-c2nc(N)nc3[nH]c(-c4ccc(N5CCOCC5)nc4)cc23)cccc1N1CCOc2cc(C3CC3)ccc2C1=O [Example N-2, 4-[3-[2-amino-6-(6-morpholino-3-pyridyl)-7H-pyrrolo[2,3-d]pyrimidin-4-yl]-2-methyl-phenyl]-8-cyclopropyl-2,3-dihydro-1,4-benzoxazepin-5-one] | 0.181
18 | Cc1c(-c2ncnc3[nH]c(C4=CCN(CCCO)CC4)cc23)cccc1N1CCOc2cc(C3CC3)ccc2C1=O [Example P-1, 8-cyclopropyl-4-[3-[6-[1-(3-hydroxypropyl)-3,6-dihydro-2H-pyridin-4-yl]-7H-pyrrolo[2,3-d]pyrimidin-4-yl]-2-methyl-phenyl]-2,3-dihydro-1,4-benzoxazepin-5-one] | 0.272
19 | Cc1c(-c2ncnc3[nH]c(C4=CCN(CCO)CC4)cc23)cccc1N1CCOc2cc(C3CC3)ccc2C1=O [Example P-2, 8-cyclopropyl-4-[3-[6-[1-(2-hydroxyethyl)-3,6-dihydro-2H-pyridin-4-yl]-7H-pyrrolo[2,3-d]pyrimidin-4-yl]-2-methyl-phenyl]-2,3-dihydro-1,4-benzoxazepin-5-one] | 0.611
20 | Cc1c(-c2ncnc3[nH]c(C4CCN(CCCO)CC4)cc23)cccc1N1CCOc2cc(C3CC3)ccc2C1=O [Example P-3, 8-cyclopropyl-4-[3-[6-[1-(3-hydroxypropyl)-4-piperidyl]-7H-pyrrolo[2,3-d]pyrimidin-4-yl]-2-methyl-phenyl]-2,3-dihydro-1,4-benzoxazepin-5-one] | > 1
21 | Cc1c(-c2ncnc3[nH]c(C4=CCCNC4)cc23)cccc1N1CCOc2cc(C3CC3)ccc2C1=O [Example P-4, 8-cyclopropyl-4-[2-methyl-3-[6-(1,2,3,6-tetrahydropyridin-5-yl)-7H-pyrrolo[2,3-d]pyrimidin-4-yl]phenyl]-2,3-dihydro-1,4-benzoxazepin-5-one] | > 1
22 | CN1CCN(Cc2ccc(-c3cc4c(-c5cccc(N6CCOc7cc(C8CC8)ccc7C6=O)c5)c(C#N)cnc4[nH]3)cc2)CC1 [Example P-6, 4-[3-(8-cyclopropyl-5-oxo-2,3-dihydro-1,4-benzoxazepin-4-yl)phenyl]-2-[4-[(4-methylpiperazin-1-yl)methyl]phenyl]-1H-pyrrolo[2,3-b]pyridine-5-carbonitrile] | 0.082
23 | O=C(O)c1ccc(-c2cc3c(-c4cccc(N5CCOc6cc(C7CC7)ccc6C5=O)c4CO)ccnc3[nH]2)nc1 [Example P-7, 6-[4-[3-(8-cyclopropyl-5-oxo-2,3-dihydro-1,4-benzoxazepin-4-yl)-2-(hydroxymethyl)phenyl]-1H-pyrrolo[2,3-b]pyridin-2-yl]pyridine-3-carboxylic acid] | 0.046
24 | O=C1c2ccc(C3CC3)cc2OCCN1c1cccc(-c2ccnc3[nH]c(-c4ccc(C(O)CO)cc4)cc23)c1CO (centres unmarked) [Example P-8, 8-cyclopropyl-4-[3-[2-[4-(1,2-dihydroxyethyl)phenyl]-1H-pyrrolo[2,3-b]pyridin-4-yl]-2-(hydroxymethyl)phenyl]-2,3-dihydro-1,4-benzoxazepin-5-one] | 0.025
25 | CS(=O)(=O)N1CC=C(c2cc3c(-c4cccc(N5CCOc6cc(C7CC7)cc(F)c6C5=O)c4CO)ccnc3[nH]2)CC1 [Example P-11, 8-cyclopropyl-6-fluoro-4-[2-(hydroxymethyl)-3-[2-(1-methylsulfonyl-3,6-dihydro-2H-pyridin-4-yl)-1H-pyrrolo[2,3-b]pyridin-4-yl]phenyl]-2,3-dihydro-1,4-benzoxazepin-5-one] | 0.01
26 | O=C1c2c(F)cc(C3CC3)cc2OCCN1c1cccc(-c2ccnc3[nH]c(C4=CCN(C5COC5)CC4)cc23)c1CO [Example P-12, 8-cyclopropyl-6-fluoro-4-[2-(hydroxymethyl)-3-[2-[1-(oxetan-3-yl)-3,6-dihydro-2H-pyridin-4-yl]-1H-pyrrolo[2,3-b]pyridin-4-yl]phenyl]-2,3-dihydro-1,4-benzoxazepin-5-one] | 0.022
